Assay results reported in ChEMBL document CHEMBL4257529, “Antifungal amphiphilic kanamycins: new life for an old drug” (Medchemcomm, 2018).
≈ marks a conversion by molar mass, not a printed value.

Columns and labels:
Fusarium graminearum [1] = assay: Antifungal activity against Fusarium graminearum by microbroth dilution assay; assay type: functional
Aspergillus flavus = assay: Antifungal activity against Aspergillus flavus after 12 to 18 hrs; assay type: functional
Fusarium graminearum [2] = assay: Antifungal activity against Fusarium graminearum after 12 to 18 hrs; assay type: functional
Escherichia coli [3] = assay: Antibacterial activity against Escherichia coli ATCC 25922 after 12 to 18 hrs; assay type: functional
Staphylococcus aureus [4] = assay: Antibacterial activity against Staphylococcus aureus ATCC 25923 after 12 to 18 hrs; assay type: functional
Escherichia coli [5] = assay: Antibacterial activity against Escherichia coli TG1 by microbroth dilution assay; assay type: functional
Staphylococcus aureus [6] = assay: Antibacterial activity against Staphylococcus aureus ATCC 25923 by microbroth dilution assay; assay type: functional
Pseudomonas aeruginosa = assay: Antibacterial activity against Pseudomonas aeruginosa ATCC 27853 by microbroth dilution assay; assay type: functional
Enterococcus faecalis = assay: Antibacterial activity against Enterococcus faecalis ATCC 29212 by microbroth dilution assay; assay type: functional
Klebsiella pneumoniae [7] = assay: Antibacterial activity against Klebsiella pneumoniae […] by microbroth dilution assay; assay type: functional
Klebsiella pneumoniae [8] = assay: Antibacterial activity against Klebsiella pneumoniae ATCC 700603 by microbroth dilution assay; assay type: functional
Rhodotorula mucilaginosa = assay: Antifungal activity against Rhodotorula pilimanae by microbroth dilution assay; assay type: functional
Candida albicans = assay: Antifungal activity against Candida albicans by microbroth dilution assay; assay type: functional
Saccharomyces cerevisiae = assay: Antifungal activity against Saccharomyces cerevisiae W303 by microbroth dilution assay; assay type: functional
Fusarium oxysporum = assay: Antifungal activity against Fusarium oxysporum by microbroth dilution assay; assay type: functional
Ulocladium = assay: Antifungal activity against Ulocladium spp. by microbroth dilution assay; assay type: functional; conditions: Alternaria sect. Ulocladium
[9] = tested on: Globisporangium irregulare; assay: Antifungal activity against Pythium irregulare by microbroth dilution assay; assay type: functional
Globisporangium ultimum = assay: Antifungal activity against Pythium ultimum by microbroth dilution assay; assay type: functional
Phytophthora nicotianae = assay: Antifungal activity against Phytophthora parasitica by microbroth dilution assay; assay type: functional
Rhizopus stolonifer = assay: Antifungal activity against Rhizopus stolonifer by microbroth dilution assay; assay type: functional
[10] = tested on: Cladosporium cladosporioides; assay: Antifungal activity against Cladosporium cladosporioides by microbroth dilution assay; assay type: functional
Curvularia brachyspora = assay: Antifungal activity against Curvularia brachyspora by microbroth dilution assay; assay type: functional
Botrytis cinerea = assay: Antifungal activity against Bortrytis cinerea by microbroth dilution assay; assay type: functional
Phoma = assay: Antifungal activity against Phoma spp. by microbroth dilution assay; assay type: functional
[11] = Hemolytic activity in sheep RBC relative to control; assay type: ADME, cell-based, Ovis aries, Erythrocyte; conditions: sheep red blood cells (erythrocytes), read-out: Activity

CCCCCCCCO[C@H]1[C@@H](O[C@@H]2[C@@H](O)[C@H](O[C@H]3O[C@H](CN)[C@@H](O)[C@H](O)[C@H]3N)[C@@H](N)C[C@H]2N)O[C@H](CO)[C@@H](O)[C@@H]1O
MIC (Fusarium graminearum [1]): 20 µg/mL (≈ 33.5 µM)

CCCCCCCCO[C@@H]1[C@@H](O)[C@@H](O[C@@H]2[C@@H](O)[C@H](O[C@H]3O[C@H](CN)[C@@H](O)[C@H](O)[C@H]3N)[C@@H](N)C[C@H]2N)O[C@H](CO)[C@H]1O
MIC (Fusarium graminearum [1]): 62.5 µg/mL (≈ 105 µM)

CCCCCCCCO[C@H]1[C@H](O)[C@@H](N)[C@@H](O[C@H]2[C@H](O)[C@@H](O[C@H]3O[C@H](CO)[C@@H](O)[C@H](O)[C@H]3O)[C@H](N)C[C@@H]2N)O[C@@H]1CN
MIC (Fusarium graminearum [1]): > 500 µg/mL

CCCCO[C@H]1[C@H](N)[C@@H](O)[C@@H](O[C@@H]2[C@@H](O)[C@H](O[C@H]3O[C@H](CN)[C@@H](O)[C@H](O)[C@H]3O)[C@@H](N)C[C@H]2N)O[C@@H]1CO
MIC (Aspergillus flavus): > 500 µg/mL
MIC (Fusarium graminearum [2]): ≥ 500 µg/mL
MIC (Escherichia coli [3]): ≥ 250 µg/mL
MIC (Staphylococcus aureus [4]): 125 µg/mL (≈ 231 µM)

CCCCCCCOC[C@H]1O[C@H](O[C@@H]2[C@@H](O)[C@H](O[C@H]3O[C@H](CN)[C@@H](O)[C@H](O)[C@H]3O)[C@@H](N)C[C@H]2N)[C@H](O)[C@@H](N)[C@@H]1OCCCCCCC
MIC (Aspergillus flavus): 500 µg/mL (≈ 734 µM)
MIC (Fusarium graminearum [2]): 15.6 µg/mL (≈ 22.9 µM)
MIC (Escherichia coli [3]): 125 µg/mL (≈ 184 µM)
MIC (Staphylococcus aureus [4]): 125 µg/mL (≈ 184 µM)

CCCCCCCCO[C@@H]1[C@@H](O[C@H]2O[C@H](CO)[C@@H](O)[C@H](O)[C@H]2O)[C@H](N)C[C@H](N)[C@H]1O[C@H]1O[C@H](CN)[C@@H](O)[C@H](O)[C@H]1N
MIC (Fusarium graminearum [1]): > 500 µg/mL

CCCCCCCCOC[C@H]1O[C@H](O[C@@H]2[C@@H](O)[C@H](O[C@H]3O[C@H](CN)[C@@H](O)[C@H](O)[C@H]3O)[C@@H](N)C[C@H]2N)[C@H](O)[C@@H](N)[C@@H]1OCCCCCCCC
MIC (Aspergillus flavus): > 500 µg/mL
MIC (Fusarium graminearum [2]): 31.3 µg/mL (≈ 44.2 µM)
MIC (Escherichia coli [3]): ≥ 250 µg/mL
MIC (Staphylococcus aureus [4]): ≥ 250 µg/mL

CCCCCCCCO[C@H]1[C@H](O)[C@@H](O)[C@@H](O[C@@H]2[C@@H](O)[C@H](O[C@H]3O[C@H](CN)[C@@H](O)[C@H](O)[C@H]3N)[C@@H](N)C[C@H]2N)O[C@@H]1C
MIC (Escherichia coli [5]): 125 to 250 µg/mL (≈ 215 to 431 µM)
MIC (Staphylococcus aureus [6]): 250 µg/mL (≈ 431 µM)
MIC (Pseudomonas aeruginosa): 250 µg/mL (≈ 431 µM)
MIC (Enterococcus faecalis): 125 to 250 µg/mL (≈ 215 to 431 µM)
MIC (Klebsiella pneumoniae [7]): 250 µg/mL (≈ 431 µM)
MIC (Klebsiella pneumoniae [8]): 250 µg/mL (≈ 431 µM)
MIC (Rhodotorula mucilaginosa): 7.8 µg/mL (≈ 13.4 µM)
MIC (Candida albicans): 31.3 µg/mL (≈ 53.9 µM)
MIC (Saccharomyces cerevisiae): 31.3 µg/mL (≈ 53.9 µM)
MIC (Fusarium graminearum [1]): 7.8 µg/mL (≈ 13.4 µM)
MIC (Fusarium oxysporum): 7.8 µg/mL (≈ 13.4 µM)
MIC (Ulocladium): 7.8 µg/mL (≈ 13.4 µM)
MIC [9]: 15.6 µg/mL (≈ 26.9 µM)
MIC (Globisporangium ultimum): 15.6 µg/mL (≈ 26.9 µM)
MIC (Phytophthora nicotianae): 15.6 µg/mL (≈ 26.9 µM)
MIC (Rhizopus stolonifer): 31.3 µg/mL (≈ 53.9 µM)
MIC [10]: 31.3 µg/mL (≈ 53.9 µM)
MIC (Curvularia brachyspora): 31.3 µg/mL (≈ 53.9 µM)
MIC (Botrytis cinerea): 31.3 µg/mL (≈ 53.9 µM)
MIC (Phoma): 31.3 µg/mL (≈ 53.9 µM)
hemolysis [11]: < 20%

CCCCOC[C@H]1O[C@H](O[C@@H]2[C@@H](O)[C@H](O[C@H]3O[C@H](CN)[C@@H](O)[C@H](O)[C@H]3O)[C@@H](N)C[C@H]2N)[C@H](O)[C@@H](N)[C@@H]1OCCCC
MIC (Aspergillus flavus): > 500 µg/mL
MIC (Fusarium graminearum [2]): 125 µg/mL (≈ 209 µM)
MIC (Escherichia coli [3]): ≥ 250 µg/mL
MIC (Staphylococcus aureus [4]): ≥ 250 µg/mL

CCCCCCO[C@H]1[C@H](N)[C@@H](O)[C@@H](O[C@@H]2[C@@H](O)[C@H](O[C@H]3O[C@H](CN)[C@@H](O)[C@H](O)[C@H]3O)[C@@H](N)C[C@H]2N)O[C@@H]1CO
MIC (Aspergillus flavus): > 500 µg/mL
MIC (Fusarium graminearum [2]): 31.3 µg/mL (≈ 55 µM)
MIC (Escherichia coli [3]): ≥ 250 µg/mL
MIC (Staphylococcus aureus [4]): 64 µg/mL (≈ 113 µM)

CCCCCCOC[C@H]1O[C@H](O[C@@H]2[C@@H](O)[C@H](O[C@H]3O[C@H](CN)[C@@H](O)[C@H](O)[C@H]3O)[C@@H](N)C[C@H]2N)[C@H](O)[C@@H](N)[C@@H]1OCCCCCC
MIC (Aspergillus flavus): 500 µg/mL (≈ 766 µM)
MIC (Fusarium graminearum [2]): 15.6 µg/mL (≈ 23.9 µM)
MIC (Escherichia coli [3]): ≥ 250 µg/mL
MIC (Staphylococcus aureus [4]): 64 µg/mL (≈ 98 µM)
